Results from article PMC6348443 (Journal of Medicinal Chemistry, 2018).
Where a name gives a salt, the structure may show the parent alone. Read-outs that look alike come from different tables or passages of the source.

Tests used:
MOR [1] = molecular target: T1, MOR (Homo sapiens, UniProt P35372); assay: competition radioligand binding, CHO cell membranes expressing human MOR, [3H]DAMGO
T1 construct: host or cells: CHO (CHO-hMOR)

DOR [2] = molecular target: T2, DOR (Homo sapiens, UniProt P41143); assay: competition radioligand binding, CHO cell membranes expressing human DOR, [3H]diprenorphine
T2 construct: host or cells: CHO (CHO-hDOR)

KOR [3] = molecular target: T3, KOR (Cavia porcellus, UniProt P41144); assay: competition radioligand binding, guinea-pig brain membranes, [3H]U69,593; details: guinea-pig brain membranes; read-out: opioid receptor binding Ki KOR
T3 construct: Membranes were prepared from Sprague-Dawley rat brains or guinea-pig brains according to the described procedures; tissue Labortierkunde und Laborgenetik, Medizinische Universität Wien; host or cells: guinea-pig brain without cerebella

MOR [4] = molecular target: T1, MOR; assay: [35S]GTPγS binding assay, CHO-hMOR membranes; type: biochemical; details: for EC50: [35S]GTPγS, CHO human MOR membranes, read-out: MOR EC50; for Emax: relative to reference full agonist DAMGO, read-out: MOR % stim.
KOR [5] = molecular target: T4, KOR (Homo sapiens, UniProt P41145); assay: [35S]GTPγS binding assay, CHO-hKOR membranes; type: biochemical; details: for EC50: [35S]GTPγS, CHO human KOR membranes, read-out: KOR EC50; for Emax: relative to reference full agonist U69,593, read-out: KOR % stim.
T4 construct: host or cells: CHO (CHO-hKOR)

DOR [6] = molecular target: T2, DOR; assay: [35S]GTPγS binding assay, CHO-hDOR membranes; type: biochemical; details: for EC50: [35S]GTPγS, CHO human DOR membranes; for Emax: relative to reference full agonist DPDPE, read-out: DOR % stim.
DOR [7] = molecular target: T5, DOR (Rattus norvegicus, UniProt P33533); assay: competition radioligand binding, rat brain membranes, [3H][Ile5,6]deltorphin II; details: for Ki: rat brain membranes, read-out: opioid receptor binding Ki DOR
T5 construct: Membranes were prepared from Sprague-Dawley rat brains or guinea-pig brains according to the described procedures; tissue Labortierkunde und Laborgenetik, Medizinische Universität Wien; host or cells: Sprague-Dawley rat brain without cerebella

Row | Structure (SMILES) | Ki (MOR [1]) [nM] | Ki (DOR [2]) [nM] | Ki (KOR [3]) [nM] | EC50 (MOR [4]) [nM] | Emax (MOR [4]) [%] | EC50 (KOR [5]) [nM] | Emax (KOR [5]) [%] | EC50 (DOR [6]) [nM] | Emax (DOR [6]) [%] | Ki (DOR [7]) [nM] | decreased DOR affinity vs 6β analogue (DOR [7]; rat brain, 18a vs 18b, 19a vs 19b) [times] | Ki (MOR [1]; CHO cell membranes expressing human MOR, read-out: Ki MOR) [nM] | Ki (DOR [2]; CHO cell membranes expressing human DOR, read-out: Ki DOR) [nM] | functional profile at MOR (full/partial agonist) (MOR [4]; full agonist ≥85% of the response to DAMGO) | functional profile at DOR (full/partial agonist) (DOR [6]; full agonist ≥85% of the response to DPDPE)
1 | CC[C@H](N[C@H]1CC[C@@]2(OC)[C@H]3Cc4ccc(O)c5c4[C@@]2(CCN3C)[C@H]1O5)C(=O)O [Compound 19a, (2S)-2-[(4,5α-Epoxy-3-hydroxy-14β-methoxy-17-methylmorphinan-6α-yl)amino]-2-ethylacetic Acid Dihydrochloride] | 0.95 ± 0.13 | 38 ± 15.4 | 144 ± 7 | 5.12 ± 0.09 | 88 ± 2 | 942 ± 235 | 61 ± 2 | 98.2 ± 5.1 | 104 ± 9 | 37.5 ± 3.4 | 29 |  |  |  | 
2 | CO[C@@]12CC[C@H](N[C@H](C(=O)N[C@@H](Cc3ccc(O)cc3)C(=O)O)C(C)C)[C@@H]3Oc4c(O)ccc5c4[C@@]31CCN(C)[C@@H]2C5 [Compound 22a, (2S)-2-[[(4,5α-Epoxy-3-hydroxy-14β-methoxy-17-methylmorphinan-6α-yl)amino]-(2S)-3-methylbutyrylamino]-3-(4-hydroxyphenyl)propionic Acid] |  |  | 69 ± 2.5 | 0.89 ± 0.04 | ~80 | 330 ± 179 | 50 ± 2 | 1.16 ± 0.6 | 88 ± 5 | 1.19 ± 0.42 |  | 1.29 ± 0.13 | 1.46 ± 0.59 | partial agonists | full agonists
